Experimental data published in patent US20260347348A1, “JAK1/JAK2/TYK2 Inhibitors For Topical Treatment of Dermatological Diseases” (Hangzhou Highlightll Pharmaceutical Co., Ltd, priority 2022, published 2026).

Columns and labels:
JAK2 = JAK2 (Homo sapiens, UniProt O60674); assay: JAK2 biochemical test (33P-ATP filter binding kinase assay); settings: room temperature, 2 hours
Method: (§1) The tests were conducted by Reaction Biology Corp, Malvern, PA (Anastassiadis et al. Nat Biotechnol. 2011; 29(11):1039-45). The step is briefly described as follows.
(§2) Basic reaction buffer: 20 mM Hepes (pH 7.5), 10 mM MgCl2, 1 mM EGTA, 0.02% Brij35, 0.02 mg/ml BSA, 0.1 mM Na3VO4, 2 mM DTT and 1% DMSO. The required cofactor was added to each kinase reaction respectively.
(§3) • 1. Preparing the designated substrate in the newly prepared basic reaction buffer; • 2. Transferring the required cofactor to the above matrix solution; • 3. Transferring the designated kinase to the substrate solution and mixing well slightly; • 4. Transferring a compound of formulae I-III in DMSO to the kinase reaction mixture with Acoustic technique (Echo550; nanoliter range), culturing for 20 minutes at room temperature; • 5. Introducing ^33P-ATP (specific activity: 10 μCi/μl) to the reaction mixture to trigger a reaction; • 6. Culturing at room temperature and conducting a kinase reaction for 2 hours; • 7. Plotting the reaction on P81 ion exchange paper; • 8. Testing the kinase activity with a filter binding assay.

JAK1 [1] = target: T1, JAK1 (Homo sapiens, UniProt P23458); assay: JAK1 biochemical test (33P-ATP filter binding kinase assay); settings: room temperature, 2 hours
Method: as §1, §2, §3

TYK2 = TYK2 (Homo sapiens, UniProt P29597); assay: TYK2 biochemical test (33P-ATP filter binding kinase assay); settings: room temperature, 2 hours
Method: as §1, §2, §3

TYK2/JAK1/JAK2 = TYK2/JAK1/JAK2 biochemical tests, comparative summary; settings: for fold less potent TYK2/JAK1/JAK2 inhibitor compared to analogs of Formula II (example 4) and Formula III (example 18): compared with examples 4 and 18; for fold less potent than its 2-((pyrazol-4-yl)amino) analog (example 18): compared with example 18
Method: as §1, §2, §3

[2] = approved oral agents; topical formulation of ruxolitinib; cited from earlier work
JAK1 [3] = target: T1, JAK1; assay: JAK1 cellular ELISA assay using PBMC cells (IL-6 stimulated STAT3 phosphorylation); assay type: cell-based; settings: IL-6 100 ng/ml, 25 min
Method: Purpose: test cellular JAK1 activity using the IL-6 stimulated STAT3 phosphorylation assay in PBMC cells.
• 1. Plate PBMC cells to 96-well plate at density of ~300,000 cell/well; • 2. Add different concentrations of test article to wells, maintain in incubator at 37° C. and 5% CO2 for 1 hour; • 3. Add IL-6 (final concentration: 100 ng/ml) to stimulate for 25 min in the above incubator; • 4. After stimulation, transfer the suspension to 1.5 mL tube, centrifuge at 200 g for 5 min, collect cells, add 100 μL 1× lysate, lyse on ice for 1 hour; • 5. Centrifuge at 4° C. and 12000 rpm for 10 min, take the supernatant and analyze according to instructions of the ELISA kit.

T1 sequence (P23458 whole entry): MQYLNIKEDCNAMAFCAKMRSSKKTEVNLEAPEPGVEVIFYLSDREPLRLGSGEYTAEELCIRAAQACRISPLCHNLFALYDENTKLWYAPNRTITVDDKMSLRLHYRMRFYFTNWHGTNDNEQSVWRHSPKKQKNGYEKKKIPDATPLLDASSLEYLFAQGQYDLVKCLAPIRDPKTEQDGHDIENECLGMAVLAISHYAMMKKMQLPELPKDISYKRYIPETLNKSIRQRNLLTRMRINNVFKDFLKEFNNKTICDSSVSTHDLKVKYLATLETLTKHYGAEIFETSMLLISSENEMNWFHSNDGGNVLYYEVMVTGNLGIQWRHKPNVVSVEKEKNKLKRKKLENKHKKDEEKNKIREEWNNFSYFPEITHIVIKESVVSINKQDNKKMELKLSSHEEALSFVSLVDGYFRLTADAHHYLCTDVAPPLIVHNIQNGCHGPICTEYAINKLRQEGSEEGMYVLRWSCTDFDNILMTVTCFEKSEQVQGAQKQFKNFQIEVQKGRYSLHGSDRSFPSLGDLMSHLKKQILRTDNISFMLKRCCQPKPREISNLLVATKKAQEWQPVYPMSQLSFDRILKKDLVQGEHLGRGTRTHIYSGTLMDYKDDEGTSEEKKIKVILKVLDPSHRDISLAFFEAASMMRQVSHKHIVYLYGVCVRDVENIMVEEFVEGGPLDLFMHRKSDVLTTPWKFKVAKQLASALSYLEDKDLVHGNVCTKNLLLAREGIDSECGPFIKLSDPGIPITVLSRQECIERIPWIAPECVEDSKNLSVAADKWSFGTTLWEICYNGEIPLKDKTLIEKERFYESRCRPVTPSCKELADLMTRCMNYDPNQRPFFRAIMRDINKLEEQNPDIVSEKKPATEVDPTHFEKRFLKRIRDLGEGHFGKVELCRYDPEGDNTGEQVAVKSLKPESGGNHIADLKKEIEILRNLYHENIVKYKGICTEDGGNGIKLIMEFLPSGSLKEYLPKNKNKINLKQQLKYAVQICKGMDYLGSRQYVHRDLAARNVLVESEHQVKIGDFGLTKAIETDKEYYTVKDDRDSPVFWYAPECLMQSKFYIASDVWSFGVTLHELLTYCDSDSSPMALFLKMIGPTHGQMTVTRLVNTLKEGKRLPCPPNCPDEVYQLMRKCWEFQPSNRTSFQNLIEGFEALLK
Chain of JAK2 (O60674 whole entry): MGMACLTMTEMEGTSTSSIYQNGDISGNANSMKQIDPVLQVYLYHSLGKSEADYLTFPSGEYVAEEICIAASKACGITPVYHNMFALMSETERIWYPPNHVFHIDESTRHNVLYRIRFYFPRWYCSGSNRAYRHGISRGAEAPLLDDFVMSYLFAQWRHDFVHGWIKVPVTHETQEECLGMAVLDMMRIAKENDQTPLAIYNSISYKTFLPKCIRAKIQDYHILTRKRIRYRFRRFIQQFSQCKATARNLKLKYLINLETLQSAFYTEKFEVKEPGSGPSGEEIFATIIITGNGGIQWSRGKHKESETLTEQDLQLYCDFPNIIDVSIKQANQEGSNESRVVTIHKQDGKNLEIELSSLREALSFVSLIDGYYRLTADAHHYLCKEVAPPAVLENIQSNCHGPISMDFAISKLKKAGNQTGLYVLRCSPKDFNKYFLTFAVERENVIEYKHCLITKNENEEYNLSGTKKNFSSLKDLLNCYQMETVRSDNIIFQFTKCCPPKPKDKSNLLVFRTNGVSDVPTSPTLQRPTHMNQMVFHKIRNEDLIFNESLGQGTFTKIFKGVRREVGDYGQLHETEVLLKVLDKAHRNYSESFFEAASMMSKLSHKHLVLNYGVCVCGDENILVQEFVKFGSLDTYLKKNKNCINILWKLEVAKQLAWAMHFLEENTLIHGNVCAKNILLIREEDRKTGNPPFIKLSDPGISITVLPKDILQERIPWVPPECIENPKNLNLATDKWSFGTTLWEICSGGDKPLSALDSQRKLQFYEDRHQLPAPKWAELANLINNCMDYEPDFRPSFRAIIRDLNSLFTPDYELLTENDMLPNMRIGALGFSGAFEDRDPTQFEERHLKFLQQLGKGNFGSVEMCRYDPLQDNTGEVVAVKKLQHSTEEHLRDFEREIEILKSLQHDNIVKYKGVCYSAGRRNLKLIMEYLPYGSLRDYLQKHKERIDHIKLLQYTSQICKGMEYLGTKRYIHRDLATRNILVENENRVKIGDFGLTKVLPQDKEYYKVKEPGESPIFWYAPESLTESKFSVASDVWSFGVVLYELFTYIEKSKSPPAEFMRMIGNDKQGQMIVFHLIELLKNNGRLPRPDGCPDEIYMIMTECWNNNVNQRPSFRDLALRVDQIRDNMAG
Chain of TYK2 (P29597 whole entry): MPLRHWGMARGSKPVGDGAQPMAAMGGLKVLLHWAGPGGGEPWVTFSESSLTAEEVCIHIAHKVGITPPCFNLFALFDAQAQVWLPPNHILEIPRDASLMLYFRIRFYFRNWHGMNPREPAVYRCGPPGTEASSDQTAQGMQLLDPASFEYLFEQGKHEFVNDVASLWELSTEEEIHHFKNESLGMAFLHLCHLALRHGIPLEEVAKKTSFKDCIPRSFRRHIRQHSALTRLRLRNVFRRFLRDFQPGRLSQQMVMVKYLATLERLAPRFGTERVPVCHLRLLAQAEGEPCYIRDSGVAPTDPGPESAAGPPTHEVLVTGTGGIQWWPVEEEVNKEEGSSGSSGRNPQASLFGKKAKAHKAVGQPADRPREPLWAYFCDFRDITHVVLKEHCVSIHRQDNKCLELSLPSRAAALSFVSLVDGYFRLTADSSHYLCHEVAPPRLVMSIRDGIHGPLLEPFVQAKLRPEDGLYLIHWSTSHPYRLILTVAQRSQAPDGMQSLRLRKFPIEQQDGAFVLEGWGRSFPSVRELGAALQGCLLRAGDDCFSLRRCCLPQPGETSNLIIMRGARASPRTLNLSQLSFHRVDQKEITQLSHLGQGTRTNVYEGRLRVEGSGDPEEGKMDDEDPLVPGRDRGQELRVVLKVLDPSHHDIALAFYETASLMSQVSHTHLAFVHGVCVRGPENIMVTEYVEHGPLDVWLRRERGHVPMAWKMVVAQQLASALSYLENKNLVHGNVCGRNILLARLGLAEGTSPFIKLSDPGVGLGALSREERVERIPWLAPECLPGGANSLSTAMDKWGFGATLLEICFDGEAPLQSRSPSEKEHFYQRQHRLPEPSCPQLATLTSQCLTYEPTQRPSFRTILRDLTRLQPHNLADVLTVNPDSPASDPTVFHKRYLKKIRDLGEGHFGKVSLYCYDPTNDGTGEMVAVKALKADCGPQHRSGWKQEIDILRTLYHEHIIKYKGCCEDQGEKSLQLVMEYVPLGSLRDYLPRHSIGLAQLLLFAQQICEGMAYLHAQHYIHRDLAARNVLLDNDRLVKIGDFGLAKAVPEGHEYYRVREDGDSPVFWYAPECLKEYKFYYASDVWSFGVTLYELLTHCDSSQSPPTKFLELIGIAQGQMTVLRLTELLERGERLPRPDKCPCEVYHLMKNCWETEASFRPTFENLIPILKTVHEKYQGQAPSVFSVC

IC50 (JAK2)	IC50 (JAK1 [1])	IC50 (TYK2)	IC50 (JAK1 [3])	SMILES	fold less potent TYK2/JAK1/JAK2 inhibitor compared to analogs of Formula II (example 4) and Formula III (example 18) (TYK2/JAK1/JAK2)	TYK2/JAK1/JAK2 inhibition (in words) (TYK2/JAK1/JAK2)	fold less potent than its 2-((pyrazol-4-yl)amino) analog (example 18) (TYK2/JAK1/JAK2)	black box warnings / risks [2]
> 100 nM	> 100 nM	> 100 nM		CNS(=O)(=O)C[C@H]1CC[C@H](N(C)c2nc(Nc3cnn(C)c3)ncc2C)CC1 [Compound 21, N-methyl-1-((1r,4r)-4-(methyl(5-methyl-2-((1-methyl-1H-pyrazol-4-yl)amino)pyrimidin-4-yl)amino)cyclohexyl)methanesulfonamide, reference compound]	> 100 ×			
< 1 nM	< 10 nM	< 1 nM		CCS(=O)(=O)N1CC(CC#N)(n2cc(-c3nc(Nc4cnn(C)c4)ncc3C3CC3)cn2)C1 [Compound 2, 2-(3-(4-(5-cyclopropyl-2-((1-methyl-1H-pyrazol-4-yl)amino)pyrimidin-4-yl)-1H-pyrazol-1-yl)-1-(ethylsulfonyl)azetidin-3-yl) acetonitrile]		potent TYK2/JAK1/JAK2 inhibitors		
	> 100 nM	> 100 nM		Cc1cnc(Nc2cnn(C)c2)nc1N(C)[C@H]1CN(C(=O)CC#N)CC[C@H]1C [Compound 22, 3-((3R,4R)-4-methyl-3-(methyl(5-methyl-2-((1-methyl-1H-pyrazol-4-yl)amino)pyrimidin-4-yl)amino)piperidin-1-yl)-3-oxopropanenitrile, reference compound]	> 100 ×			
> 10 nM	> 10 nM	> 10 nM		CCCS(=O)(=O)N[C@H]1C[C@@H](N(C)c2nc(Nc3cnn(C)c3)ncc2C)C1 [Compound 20, N-((1s,3s)-3-(methyl(5-methyl-2-((1-methyl-1H-pyrazol-4-yl)amino)pyrimidin-4-yl)amino)cyclobutyl)propane-1-sulfonamide, reference compound]	> 10 ×			
	> 10 nM	> 10 nM		CCS(=O)(=O)N1CC(CC#N)(n2cc(-c3nc(Nc4ccn(C)n4)ncc3C)cn2)C1.Cl [Compound 14, 2-(1-(ethylsulfonyl)-3-(4-(5-methyl-2-((1-methyl-1H-pyrazol-3-yl)amino)pyrimidin-4-yl)-1H-pyrazol-1-yl)azetidin-3-yl)acetonitrile hydrochloride, reference compound]			> 10 ×	
				CCCS(=O)(=O)N[C@H]1C[C@@H](N(C)c2ncnc3[nH]ccc23)C1 [abrocitinib]				black box warnings of risks such as serious infections, non-melanoma skin cancers, thrombosis, and thrombocytopenia
< 1 nM	< 1 nM	< 1 nM		Cc1cnc(Nc2cnn(CC3COC3)c2)nc1-c1cnn([C@H](CC#N)C2CCCC2)c1 [Compound 9, (R)-3-cyclopentyl-3-(4-(5-methyl-2-((1-(oxetan-3-ylmethyl)-1H-pyrazol-4-yl)amino)pyrimidin-4-yl)-1H-pyrazol-1-yl) propanenitrile]		potent TYK2/JAK1/JAK2 inhibitors		
< 1 nM	< 1 nM	< 1 nM		Cc1cnc(Nc2cnn(C3COC3)c2)nc1-c1cnn([C@H](CC#N)C2CCCC2)c1 [Compound 8, (R)-3-cyclopentyl-3-(4-(5-methyl-2-((1-(oxetan-3-yl)-1H-pyrazol-4-yl)amino)pyrimidin-4-yl)-1H-pyrazol-1-yl) propanenitrile]		potent TYK2/JAK1/JAK2 inhibitors		
				CC[C@@H]1CN(C(=O)NCC(F)(F)F)C[C@@H]1c1cnc2cnc3[nH]ccc3n12 [upadacitinib]				black box warnings of risks such as serious infections, non-melanoma skin cancers, thrombosis, and thrombocytopenia
< 1 nM	< 1 nM	< 1 nM	< 500 nM	Cc1cnc(Nc2cnn(CCO)c2)nc1-c1cnn([C@H](CC#N)C2CCCC2)c1 [Compound 24, (R)-3-cyclopentyl-3-(4-(2-((1-(2-hydroxyethyl)-1H-pyrazol-4-yl)amino)-5-methylpyrimidin-4-yl)-1H-pyrazol-1-yl)propanenitrile]		potent TYK2/JAK1/JAK2 inhibitors		
	< 1 nM			CCS(=O)(=O)N1CC(CC#N)(n2cc(-c3nc(Nc4ccc5ncn(C)c5c4)ncc3C)cn2)C1 [Compound 26, 2-(1-(ethylsulfonyl)-3-(4-(5-methyl-2-((1-methyl-1H-benzo[d]imidazol-6-yl)amino)pyrimidin-4-yl)-1H-pyrazol-1-yl)azetidin-3-yl)acetonitrile]		potent TYK2/JAK1/JAK2 inhibitors		
< 1 nM	< 1 nM	< 1 nM		Cc1cnc(Nc2cnn(C3CCOCC3)c2)nc1-c1cnn([C@H](CC#N)C2CCCC2)c1 [Compound 7, (R)-3-cyclopentyl-3-(4-(5-methyl-2-((1-(tetrahydro-2H-pyran-4-yl)-1H-pyrazol-4-yl)amino)pyrimidin-4-yl)-1H-pyrazol-1-yl)propanenitrile]		potent TYK2/JAK1/JAK2 inhibitors		
> 10 nM	> 10 nM	> 10 nM		CCS(=O)(=O)N1CC(CC#N)(n2cc(-c3nc(Nc4cn(C)nn4)ncc3C)cn2)C1 [Compound 19, 2-(1-(ethylsulfonyl)-3-(4-(5-methyl-2-((1-methyl-1H-1,2,3-triazol-4-yl)amino)pyrimidin-4-yl)-1H-pyrazol-1-yl)azetidin-3-yl)acetonitrile, reference compound]			> 10 ×	
< 1 nM	< 1 nM	< 1 nM		Cc1cnc(Nc2cnn(CC3CCOCC3)c2)nc1-c1cnn([C@H](CC#N)C2CCCC2)c1 [Compound 6, (R)-3-cyclopentyl-3-(4-(5-methyl-2-((1-((tetrahydro-2H-pyran-4-yl)methyl)-1H-pyrazol-4-yl)amino)pyrimidin-4-yl)-1H-pyrazol-1-yl)propanenitrile]		potent TYK2/JAK1/JAK2 inhibitors		
		< 1 nM		N#CC[C@H](C1CCCC1)n1cc(-c2nc(Nc3cnn(C4CCOCC4)c3)ncc2Cl)cn1 [Compound 11]		potent TYK2/JAK1/JAK2 inhibitors		
< 1 nM	< 1 nM	< 1 nM		Cc1cnc(Nc2cnoc2)nc1-c1cnn([C@H](CC#N)C2CCCC2)c1 [Compound 5, (R)-3-cyclopentyl-3-(4-(2-(isoxazol-4-ylamino)-5-methylpyrimidin-4-yl)-1H-pyrazol-1-yl) propanenitrile]		potent TYK2/JAK1/JAK2 inhibitors		
< 1 nM	< 1 nM	< 1 nM	< 500 nM	Cc1cnc(Nc2ccc3ncn(C)c3c2)nc1-c1cnn([C@H](CC#N)C2CCCC2)c1 [Compound 23, (R)-3-cyclopentyl-3-(4-(5-methyl-2-((1-methyl-1H-benzo[d]imidazol-6-yl)amino)pyrimidin-4-yl)-1H-pyrazol-1-yl)propanenitrile]		potent TYK2/JAK1/JAK2 inhibitors		
